The values that follow come from ChEMBL document CHEMBL5724914, “Linking interpersonal differences in gut microbiota composition and drug biotransformation activity” (2024).

For series [1] the following is noted: human gut metagenome, 24 h, 2 µM.
The conditions of series [2]: human gut metagenome, 24 h, 2 µM. This is another data set of the same source.
The conditions of series [3]: human gut metagenome, 24 h, 2 µM. This is another data set of the same source.
For series [4] the following is noted: human gut metagenome, 24 h, 2 µM. This is another data set of the same source.
For series [5] the following is noted: human gut metagenome, 24 h, 2 µM. This is another data set of the same source.
The nature of series [6]: The drug is tested on Z-027 corresponding to metagenome with ENA study accession number: PRJEB37062 and ENA sample accession number: ERS12561826 for biotransformation under anaerobic condition. The drug concentrations were measured over 9 timepoints collected between 0 and 24 hours of incubation by liquid-chromatography-coupled mass spectrometry (LC–MS). The following applies: 2 µM.

Series [7] can be described thus: The drug is tested on Z-016 corresponding to mouse gut metagenome with ENA study accession number: PRJEB37062 and ENA sample accession number: ERS12561815 for biotransformation under anaerobic condition. The drug concentrations were measured over 9 timepoints collected between 0 and 24 hours of incubation by liquid-chromatography-coupled mass spectrometry (LC–MS). To be noted: 2 µM.

For series [8] the following is noted: human gut metagenome, 24 h, 2 µM. This is another data set of the same source.
The conditions of series [9]: human gut metagenome, 24 h, 2 µM. This is another data set of the same source.
The nature of series [10]: The drug is tested on WLS-090 corresponding to human gut metagenome with ENA study accession number: PRJEB37062 and ENA sample accession number: ERS12561753 for biotransformation under anaerobic condition. The drug concentrations were measured over 9 timepoints collected between 0 and 24 hours of incubation by liquid-chromatography-coupled mass spectrometry (LC–MS). The following applies: 2 µM.

The conditions of series [11]: human gut metagenome, 24 h, 2 µM. This is another data set of the same source.
The nature of series [12]: The drug is tested on Z-014 corresponding to rat gut metagenome with ENA study accession number: PRJEB37062 and ENA sample accession number: ERS12561814 for biotransformation under anaerobic condition. The drug concentrations were measured over 9 timepoints collected between 0 and 24 hours of incubation by liquid-chromatography-coupled mass spectrometry (LC–MS). The following applies: 2 µM.

The conditions of series [13]: human gut metagenome, 24 h, 2 µM. This is another data set of the same source.
Series [14] can be described thus: The drug is tested on Z-004 corresponding to metagenome with ENA study accession number: PRJEB37062 and ENA sample accession number: ERS12561804 for biotransformation under anaerobic condition. The drug concentrations were measured over 9 timepoints collected between 0 and 24 hours of incubation by liquid-chromatography-coupled mass spectrometry (LC–MS). The following applies: 2 µM.

Series [15] in a line: The drug is tested on WLS-220 corresponding to human gut metagenome with ENA study accession number: PRJEB37062 and ENA sample accession number: ERS12561769 for biotransformation under anaerobic condition. The drug concentrations were measured over 9 timepoints collected between 0 and 24 hours of incubation by liquid-chromatography-coupled mass spectrometry (LC–MS). To be noted: 2 µM.

Series [16] is described as follows: The drug is tested on Z-019 corresponding to rat gut metagenome with ENA study accession number: PRJEB37062 and ENA sample accession number: ERS12561818 for biotransformation under anaerobic condition. The drug concentrations were measured over 9 timepoints collected between 0 and 24 hours of incubation by liquid-chromatography-coupled mass spectrometry (LC–MS). The following applies: 2 µM.

Series [17] in a line: The drug is tested on Z-023 corresponding to metagenome with ENA study accession number: PRJEB37062 and ENA sample accession number: ERS12561822 for biotransformation under anaerobic condition. The drug concentrations were measured over 9 timepoints collected between 0 and 24 hours of incubation by liquid-chromatography-coupled mass spectrometry (LC–MS). The following applies: 2 µM.

Series [18] can be described thus: The drug is tested on WLS-310 corresponding to human gut metagenome with ENA study accession number: PRJEB37062 and ENA sample accession number: ERS12561785 for biotransformation under anaerobic condition. The drug concentrations were measured over 9 timepoints collected between 0 and 24 hours of incubation by liquid-chromatography-coupled mass spectrometry (LC–MS). The following applies: 2 µM.

Series [19] is described as follows: The drug is tested on Z-012 corresponding to metagenome with ENA study accession number: PRJEB37062 and ENA sample accession number: ERS12561812 for biotransformation under anaerobic condition. The drug concentrations were measured over 9 timepoints collected between 0 and 24 hours of incubation by liquid-chromatography-coupled mass spectrometry (LC–MS). To be noted: 2 µM.

Series [20] can be described thus: The drug is tested on Z-018 corresponding to pig gut metagenome with ENA study accession number: PRJEB37062 and ENA sample accession number: ERS12561817 for biotransformation under anaerobic condition. The drug concentrations were measured over 9 timepoints collected between 0 and 24 hours of incubation by liquid-chromatography-coupled mass spectrometry (LC–MS). To be noted: 2 µM.
Further: call rule not given here.

As to `N=C(N)NC(=O)Cc1c(Cl)cccc1Cl` [GUANFACINE], the “Bacterial Biotransformation” value in series [1], in series [2], in series [3], in series [4], in series [5] and in series [6] was “Compound NOT metabolized” in each case. Also, the “Bacterial Biotransformation” value in series [7], in series [8], in [9], in series [10], in [11] and in [12] was “Compound NOT metabolized” in each case. Further, the “Bacterial Biotransformation” value in [13], in series [14], in series [15], in series [16], in [17] and in series [18] was “Compound NOT metabolized” in each case. The “Bacterial Biotransformation” value in series [19] is “Compound NOT metabolized”.
For `CNNCc1ccc(C(=O)NC(C)C)cc1` [PROCARBAZINE], the “Bacterial Biotransformation” value in series [1] is listed as “Compound NOT metabolized”; in series [2], “Compound NOT metabolized”; in series [3] it was “Compound NOT metabolized”; in series [4] it was “Compound metabolized”; in series [5] it was “Compound NOT metabolized”; in [8], “Compound NOT metabolized”. Further, the “Bacterial Biotransformation” value in [9] is given as “Compound NOT metabolized”; in series [10], “Compound NOT metabolized”; in series [11], “Compound metabolized”; in [12] it was “Compound NOT metabolized”; in series [13], “Compound NOT metabolized”; in series [14], “Compound NOT metabolized”. Besides, the “Bacterial Biotransformation” value in series [18] and in series [19] was “Compound metabolized” throughout.
For the compound `N#Cc1ccc2[nH]cc(CCCCN3CCN(c4ccc5oc(C(N)=O)cc5c4)CC3)c2c1` [VILAZODONE], the “Bacterial Biotransformation” value is on record as “Compound metabolized” in [2]; “Compound metabolized” in [3]; “Compound metabolized” in series [5]; “Compound NOT metabolized” in series [6]; “Compound metabolized” in [7]; “Compound metabolized” in series [8]. The “Bacterial Biotransformation” value in series [9] was “Compound metabolized”; in series [10], “Compound metabolized”; in [12], “Compound NOT metabolized”; in series [13] it was “Compound metabolized”; in series [14], “Compound NOT metabolized”; in [15] it was “Compound metabolized”. In addition, the “Bacterial Biotransformation” value was “Compound NOT metabolized” in [20]; “Compound NOT metabolized” in [16]; “Compound metabolized” in [17]; “Compound metabolized” in series [18]; “Compound NOT metabolized” in [19].
For `O=C1CCc2ccc(OCCCCN3CCN(c4cccc(Cl)c4Cl)CC3)cc2N1` [ARIPIPRAZOLE], the “Bacterial Biotransformation” value was “Compound NOT metabolized” in series [6]; “Compound metabolized” in series [7]; “Compound metabolized” in series [12]; “Compound NOT metabolized” in [14]; “Compound metabolized” in series [20]; “Compound NOT metabolized” in series [16]. Moreover, the “Bacterial Biotransformation” value is “Compound metabolized” in series [17] and “Compound NOT metabolized” in series [19].
For `CC(=O)SCC(Cc1ccccc1)C(=O)NCC(=O)OCc1ccccc1` (stereo not given) [RACECADOTRIL], the “Bacterial Biotransformation” value in [6] is “Compound NOT metabolized”; in series [7], “Compound metabolized”; in series [12], “Compound metabolized”; in series [14], “Compound metabolized”; in series [20] it was “Compound metabolized”; in series [16], “Compound metabolized”. Besides, the “Bacterial Biotransformation” value in series [17] and in series [19] was “Compound metabolized” throughout.
Take `CN(C/C=C/C#CC(C)(C)C)Cc1cccc2ccccc12` [TERBINAFINE]: the “Bacterial Biotransformation” value in [1], in series [2], in series [3], in [4], in [6] and in series [7] was “Compound NOT metabolized” in each case. For the same compound, the “Bacterial Biotransformation” value in series [8], in [9], in series [10], in [11], in series [12] and in series [13] was “Compound NOT metabolized” in each case. Moreover, the “Bacterial Biotransformation” value is listed as “Compound NOT metabolized” in series [14]; “Compound NOT metabolized” in series [15]; “Compound NOT metabolized” in [20]; “Compound metabolized” in [18]; “Compound NOT metabolized” in series [19].
As for `O=C(O)c1cc(/N=N/c2ccc(S(=O)(=O)Nc3ccccn3)cc2)ccc1O` [SULFASALAZINE], the “Bacterial Biotransformation” value in [1] is recorded as “Compound metabolized”; in [2], “Compound metabolized”; in series [3], “Compound metabolized”; in series [4], “Compound metabolized”; in series [5] it was “Compound metabolized”; in series [6], “Compound NOT metabolized”. Besides, the “Bacterial Biotransformation” value in [7], in series [8], in [9], in series [10], in series [11] and in series [12] was “Compound metabolized” in each case. For the same compound, the “Bacterial Biotransformation” value in [13], in [14], in series [15], in series [20], in series [17] and in series [18] was “Compound metabolized” each time. In addition, in series [19], the “Bacterial Biotransformation” value is “Compound metabolized”.
With `CC(=O)Oc1ccc(C(c2ccc(OC(C)=O)cc2)c2ccccn2)cc1` [BISACODYL], the “Bacterial Biotransformation” value in [1], in [2], in series [3], in [4], in series [5] and in series [8] was “Compound metabolized” throughout. Moreover, the “Bacterial Biotransformation” value in series [9], in [10], in series [11], in [13], in series [14] and in series [15] was “Compound metabolized” each time. Besides, the “Bacterial Biotransformation” value in [18] is on record as “Compound metabolized”.
